Test results reported in ChEMBL document CHEMBL1629480, “Molecular docking and QSAR study on steroidal compounds as aromatase inhibitors” (Eur J Med Chem, 2010).

Molecular target: T1, Aromatase (Homo sapiens, UniProt P11511)
T1 sequence (P11511 whole entry): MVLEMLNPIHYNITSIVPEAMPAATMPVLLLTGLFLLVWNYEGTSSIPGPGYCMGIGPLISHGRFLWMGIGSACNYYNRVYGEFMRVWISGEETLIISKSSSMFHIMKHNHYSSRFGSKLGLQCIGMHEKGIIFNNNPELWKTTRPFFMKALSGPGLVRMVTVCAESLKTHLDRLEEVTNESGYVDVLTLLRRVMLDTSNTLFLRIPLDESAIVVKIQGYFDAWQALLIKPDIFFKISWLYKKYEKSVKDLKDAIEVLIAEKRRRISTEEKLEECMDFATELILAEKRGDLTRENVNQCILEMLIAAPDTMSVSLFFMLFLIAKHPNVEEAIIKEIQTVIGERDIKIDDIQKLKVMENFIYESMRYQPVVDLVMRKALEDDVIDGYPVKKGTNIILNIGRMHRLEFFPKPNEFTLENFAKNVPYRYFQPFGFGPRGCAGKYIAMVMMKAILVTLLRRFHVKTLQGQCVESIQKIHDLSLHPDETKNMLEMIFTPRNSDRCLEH
Assay: Inhibition of human placental aromatase
Conditions: for pIC50: human

SMILES | IC50 [µM] | pIC50 [uM]
C[C@]12CCC=C[C@@H]1CC[C@@H]1[C@@H]2CC[C@]2(C)C(=O)CC[C@@H]12 | 0.225 | 0.648
C[C@]12CCC=C[C@@H]1CC[C@@H]1[C@@H]2CC[C@]2(C)[C@@H](O)CC[C@@H]12 | 30 | -1.477
C[C@]12CC[C@H]3O[C@H]3[C@@H]1CC[C@@H]1[C@@H]2CC[C@]2(C)C(=O)CC[C@@H]12 |  | 0.839
C[C@]12CC[C@H]3O[C@H]3[C@@H]1CC[C@@H]1[C@@H]2CC[C@]2(C)[C@@H](O)CC[C@@H]12 | 6.5 | -0.813
C[C@]12CC[C@H]3[C@@H](CCC4=CCCC[C@@]43CO)[C@@H]1CCC2=O |  | 1.31
CCCC(=O)OC1=C2CC[C@@H]3[C@H](CC[C@]4(C)C(=O)CC[C@@H]34)[C@@]2(C)CCC1 | 1.5 | -0.176
CCCCCC(=O)OC1=C2CC[C@@H]3[C@H](CC[C@]4(C)C(=O)CC[C@@H]34)[C@@]2(C)CCC1 | 1.8 | -0.255
C[C@]12CCCC(OC(=O)c3ccccc3)=C1CC[C@@H]1[C@@H]2CC[C@]2(C)C(=O)CC[C@@H]12 | 0.64 | 0.194
CC(=O)OC1=C2CC[C@@H]3[C@H](CC[C@]4(C)C(=O)CC[C@@H]34)[C@@]2(C)CCC1 | 0.66 | 0.18
CC(=O)OC1=C2CC[C@@H]3[C@H](CC[C@]4(C)C(=O)CC[C@@H]34)[C@@]2(CO)CCC1 | 3.6 | -0.556
C[C@]12CC[C@H]3[C@@H](C[C@H](O)C4=CCCC[C@@]43CO)[C@@H]1CCC2=O | 1 | -0.146
C[C@]12CC[C@H]3[C@@H](C[C@@H](O)C4=CCCC[C@@]43CO)[C@@H]1CCC2=O |  | 0.027
CC(=O)OC1CCC[C@@]2(C)C1=CC[C@@H]1[C@@H]2CC[C@]2(C)C(=O)CC[C@@H]12 (stereo partly drawn) |  | 0
CC(=O)OC1CCC[C@@]2(CO)C1=CC[C@@H]1[C@@H]2CC[C@]2(C)C(=O)CC[C@@H]12 (stereo partly drawn) | 11 | -1.041
CO[C@H]1CCC[C@@]2(CO)C1=CC[C@@H]1[C@@H]2CC[C@]2(C)C(=O)CC[C@@H]12 |  | -2.176
C[C@H]1CCC[C@@]2(C)C1=CC[C@@H]1[C@@H]2CC[C@]2(C)C(=O)CC[C@@H]12 | 1.8 | -0.255
CC[C@H]1CCC[C@@]2(C)C1=CC[C@@H]1[C@@H]2CC[C@]2(C)C(=O)CC[C@@H]12 | 4.5 | -0.653
CCC[C@H]1CCC[C@@]2(C)C1=CC[C@@H]1[C@@H]2CC[C@]2(C)C(=O)CC[C@@H]12 | 5.5 | -0.74
C[C@]12CCCC(=O)[C@@H]1CC[C@@H]1[C@@H]2CC[C@]2(C)C(=O)CC[C@@H]12 | 2.4 | -0.38
C[C@]12CC[C@@H](O)C(=O)[C@@H]1CC[C@@H]1[C@@H]2CC[C@]2(C)C(=O)CC[C@@H]12 |  | 0.174
C[C@]12CCC(=O)C(O)=C1CC[C@@H]1[C@@H]2CC[C@]2(C)OC(=O)CC[C@@H]12 | 1.85 | -0.267
C[C@]12CC[C@H]3[C@@H](CC=C4CCCC[C@]43C)[C@@H]1CCC2=O | 0.66 | 
C[C@]12CCC(=O)C(O)=C1CC[C@@H]1[C@@H]2CC[C@]2(C)C(=O)CC[C@@H]12 [FORMESTANE] |  | 1.377
